Results published in publication PMC9738591, “N-[1,3-Dialkyl(aryl)-2-oxoimidazolidin-4-ylidene]-aryl(alkyl)sulphonamides as Novel Selective Human Cannabinoid Type 2 Receptor (hCB2R) Ligands; Insights into the Mechanism of Receptor Activation/Deactivation” (Molecules, 2022).
Read-outs that look alike come from different tables or passages of the source.

Experiments:
human recombinant CB1R = target: T1, human recombinant CB1R (Homo sapiens, UniProt P21554); assay: Competition binding assay, displacement of [3H]-CP-55,940 from membranes of HEK-293 cells overexpressing CB1R; details: for Ki: [3H]-CP-55,940 displacement, HEK-293 membranes, 90 min at 30 °C, Cheng-Prusoff, read-out: Ki hCB1R (µM ± S.E.); for inhibition at 10 µM: read-out: % Displacement/ Max. Conc. Tested, hCB1R
T1 construct: purchased Perkin-Elmer, Italy; host or cells: HEK-293 cells (membranes)
Procedure: (§1) The binding affinities (Ki values) of the compounds for human recombinant hCB1R and hCB2R were determined as previously described, using SR144528 as a reference compound [30], and are reported in Table 1.
(§2) Compound affinity for CB1R and CB2R was measured as previously reported. […] Competition curves were performed by displacing [^3H]-CP-55 940 with increasing concentrations of compounds (0.1 nM–10 or 25 μM). […] All compounds were tested following the procedure described by the manufacturer (Perkin-Elmer, Italy). Displacement curves were generated by incubating drugs with [^3H]-CP-55 940 for 90 min at 30 °C. Ki values were calculated by applying the Cheng−Prusoff equation to the IC50 values for the displacement of the bound radioligand by increasing concentrations of the test compound. Data represent the mean values of three independent experiments performed in duplicate and are expressed as the average of Ki (µM) ± standard deviation. Data were analyzed using PRISM.9.3 software (GraphPad Software Inc, San Diego, CA, USA).

human CB2R = human CB2R (Homo sapiens, UniProt P34972); assay: Competition binding assay, displacement of [3H]-CP-55,940 from membranes of HEK-293 cells overexpressing CB2R; set-up: purchased Perkin-Elmer, Italy; host or cells: HEK-293 cells (membranes); details: for Ki: [3H]-CP-55,940 displacement, HEK-293 membranes, 90 min at 30 °C, Cheng-Prusoff, read-out: Ki hCB2R (µM ± S.E.); for inhibition at 10 µM: max conc. tested 10 µM
Procedure: as §1, §2

[1] = read-out: % Displacement/ Max Conc. Tested, hCB2R (converted)

T1 sequence (P21554 whole entry): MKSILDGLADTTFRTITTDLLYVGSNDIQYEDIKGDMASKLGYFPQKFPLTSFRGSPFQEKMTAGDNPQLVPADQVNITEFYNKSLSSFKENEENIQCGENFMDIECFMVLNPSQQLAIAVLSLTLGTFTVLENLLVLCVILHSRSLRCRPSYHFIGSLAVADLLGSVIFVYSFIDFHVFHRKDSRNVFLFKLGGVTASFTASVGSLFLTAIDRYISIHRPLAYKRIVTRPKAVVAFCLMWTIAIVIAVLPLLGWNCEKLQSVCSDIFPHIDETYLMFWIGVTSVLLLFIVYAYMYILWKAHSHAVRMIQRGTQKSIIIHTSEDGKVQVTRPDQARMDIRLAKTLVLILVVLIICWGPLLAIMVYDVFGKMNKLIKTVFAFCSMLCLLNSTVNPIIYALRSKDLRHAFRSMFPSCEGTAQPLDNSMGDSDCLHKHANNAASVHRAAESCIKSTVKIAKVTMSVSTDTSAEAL
Chain of human CB2R (P34972 whole entry): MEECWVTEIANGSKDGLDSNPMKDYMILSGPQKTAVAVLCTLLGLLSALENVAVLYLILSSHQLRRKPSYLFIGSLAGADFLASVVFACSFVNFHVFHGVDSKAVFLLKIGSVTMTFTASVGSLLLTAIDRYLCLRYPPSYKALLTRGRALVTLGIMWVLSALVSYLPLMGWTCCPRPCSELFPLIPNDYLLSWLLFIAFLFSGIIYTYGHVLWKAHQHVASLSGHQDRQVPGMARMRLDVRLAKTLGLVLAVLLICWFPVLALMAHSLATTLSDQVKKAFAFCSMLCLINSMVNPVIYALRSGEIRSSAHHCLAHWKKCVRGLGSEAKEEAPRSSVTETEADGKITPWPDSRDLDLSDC

Structure (SMILES)	Ki (human recombinant CB1R)	inhibition at 10 µM (human recombinant CB1R; max conc. tested 10 µM)	Ki (human CB2R)	inhibition at 10 µM (human CB2R; [1])	inhibition at 10 µM (human recombinant CB1R)	melting point	inhibition at 25 µM (human CB2R; max conc. tested 25 µM, read-out: % Displacement/ Max Conc. Tested, hCB2R (converted))
Cc1cc(C)c(S(=O)(=O)N=C2CN(C(C)(C)C)C(=O)N2c2ccccc2)c(C)c1 [Compound 9f, N-[1-tert-Butyl-2-oxo-3-phenylimidazolidin-4-ylidene]-2,4,6-trimethylbenzenesulfonamide]	> 10 µM	0%	> 10 µM	47.8%	–	–	–
CC(C)(C)N1CC(=NS(=O)(=O)c2cccc3ccccc23)N(c2ccccc2)C1=O [Compound 9g, N-[1-tert-Butyl-2-oxo-3-phenylimidazolidin-4-ylidene]naphthalene-1-sulfonamide]	> 10 µM	–	> 10 µM	11%	14.8%	–	–
CC(C)(C)N1CC(=NS(=O)(=O)c2ccc3ccccc3c2)N(c2ccccc2)C1=O [Compound 9h, N-[1-tert-Butyl-2-oxo-3-phenylimidazolidin-4-ylidene]naphthalene-2-sulfonamide]	> 10 µM	–	> 10 µM	35.6%	8.35%	–	–
CC(C)(C)N1CC(=NS(C)(=O)=O)N(CC2CC2)C1=O [Compound 10a, N-[1-tert-Butyl-3-cyclopropylmethyl-2-oxoimidazolidin-4-ylidene]methanesulfonamide]	> 10 µM	–	> 10 µM	13.4%	16.3%	83.5 to 84 °C	–
Cc1ccc(S(=O)(=O)N=C2CN(C(C)(C)C)C(=O)N2CC2CC2)cc1 [Compound 10c, N-[1-tert-Butyl-3-cyclopropylmethyl-2-oxoimidazolidin-4-ylidene]-4-methylbenzenesulfonamide]	> 10 µM	–	1.47 ± 0.05 µM	–	0%	104.5 to 105 °C	89.5%
CC(C)(C)N1CC(=NS(=O)(=O)c2ccc(Br)cc2)N(CC2CC2)C1=O [Compound 10d, 4-Bromo-N-[1-tert-Butyl-3-cyclopropylmethyl-2-oxoimidazolidin-4-ylidene]benzenesulfonamide]	> 10 µM	–	0.83 ± 0.25 µM	77.2%	22.2%	98 to 98.5 °C	–
Cc1cc(C)c(S(=O)(=O)N=C2CN(C(C)(C)C)C(=O)N2CC2CC2)c(C)c1 [Compound 10f, N-[1-tert-Butyl-3-cyclopropylmethyl-2-oxoimidazolidin-4-ylidene]-2,4,6-trimethylbenzenesulfonamide]	> 10 µM	–	0.63 ± 0.14 µM	81.3%	15.4%	149 to 150 °C	–
CC(C)(C)N1CC(=NS(=O)(=O)c2ccc3ccccc3c2)N(CC2CC2)C1=O [Compound 10h, N-[1-tert-Butyl-3-cyclopropylmethyl-2-oxoimidazolidin-4-ylidene]naphthalene-2-sulfonamide]	> 10 µM	–	0.78 ± 0.17 µM	72.3%	8.18%	–	–
COCCN1C(=O)N(C(C)(C)C)CC1=NS(C)(=O)=O [Compound 11a, N-[1-tert-Butyl-3-(2-methoxyethyl)-2-oxoimidazolidin-4-ylidene]methanesulfonamide]	> 10 µM	–	> 10 µM	14.1%	65.3%	70.5 to 71 °C	–
COCCN1C(=O)N(C(C)(C)C)CC1=NS(=O)(=O)c1ccccc1 [Compound 11b, N-[1-tert-Butyl-3-(2-methoxyethyl)-2-oxoimidazolidin-4-ylidene]benzenesulfonamide]	> 10 µM	–	> 10 µM	21.2%	52.6%	104.5 to 105 °C	–
COCCN1C(=O)N(C(C)(C)C)CC1=NS(=O)(=O)c1ccc(C)cc1 [Compound 11c, N-[1-tert-Butyl-3-(2-methoxyethyl)-2-oxoimidazolidin-4-ylidene]-4-methylbenzene-1-sulfonamide]	> 10 µM	–	> 10 µM	33.4%	57%	106 to 107 °C	–
